Measurements as given in patent US6900315B2, “2-amino-9H-purin-9-yl compounds and methods for inhibiting/treating HIV infections and AIDS related symptoms” (Yale University, priority 2001, dated 2005).
Where two headings read alike, the source gives them in different places.

Tests used:
[1] = biological target: T1, wild type HIV-1 reverse transcriptase (Human immunodeficiency virus type 1 group M subtype B, UniProt P04585); assay: Kinetics of nucleotide incorporation by wild type HIV-1 reverse transcriptase; type: biochemical; settings: RT WT
T1 construct: a mixture of 100 nM HIV-1 reverse transcriptase and 300 nM primer/template
Description: Continued research on the guanosine prodrug approach for making D4G a viable anti-HIV agent has yielded a number of new findings. In the present example, enzyme kinetics for the incorporation of the active metabolites of guanosine prodrugs with wild type HIV-1 reverse transcriptase was determined. In this experiment, a mixture of 100 nM HIV-1 reverse transcriptase and 300 nM primer/template in which the correct base incorporation is a guanine nucleotide was rapidly mixed with nucleotide in the presence of 50 mM Tris, 50 mM NaCl and 10 mM MgCl2 for a set amount of time and then the reaction was stopped by the addition 300 mM of EDTA.

[2] = biological target: T1, wild type HIV-1 reverse transcriptase; set-up: kpol/Kd: unit not given here; settings: from Ray and Anderson or Furman et al., cited from earlier work
HEP-G2 = assay: Toxicity, dye based cell growth assay, HEP-G2; settings: read-out: IC50 (inhibited 50% of the cell growth), HEP-G2, hepatoma cell line, 5 days
Description: (§1) To determine the toxicity of the compounds to various cell lines (Table 1, below), a similar dye based assay is performed in the absence of HIV. The toxicity of the compounds alone therefore was determined.

MT-2 = assay: Toxicity, dye based cell growth assay in absence of HIV, MT-2; settings: read-out: IC50 (inhibited 50% of the cell growth), MT-2, HTLV infected T cell line, 5 days
Description: as §1

KB = assay: Toxicity, dye based cell growth assay, KB; settings: read-out: IC50 (inhibited 50% of the cell growth), oral carcinoma, 5 days
Description: as §1

HIV [3] = settings: pairs: D4T and AZT, 3TC and ddC, FD4C and 3TC, abacavir and cyclo D4G; Bridges et al., Dutschman et al.; cited from earlier work
HeLa = assay: Toxicity, dye based cell growth assay, HeLa; settings: read-out: IC50 (inhibited 50% of the cell growth), cervical cancer cell line, 5 days
Description: as §1

HIV [4] = assay: Anti-HIV drug combination (synergy, isobologram of FEC50) in cell culture; type: cell-based; settings: FIG. 3 and FIG. 4
Description: Points on this line represent the compounds working independently.
In an attempt to understand how D4G prodrugs of the present invention would interact with other clinically approved compounds, experiments were performed with drug combinations. […] Points on the line represent two compounds working independently. […] See, Bridges, et al., Biochem. Pharmacol., 51, 731 (1996) and Dutschman, et al., Antimicro. Agents Chemother. 42, 1799 (1998).

[5] = system: mitochondrial DNA in CEM cells; assay: Mitochondrial toxicity: ratio of mitochondrial DNA to Alu repeat in CEM cells; type: cell-based; settings: human, 8 days
Description: After 8 days of growth the cells were lysed and probed for the amount of mitochondrial DNA and normalized for differences in the amount of total DNA by probing for the Alu repeat. By comparing the amount of mitochondrial DNA to the amount of Alu repeat the % decrease in mitochondrial DNA in the presence of various concentrations of drug can be obtained. All experiments were done in triplicate. Techniques which are presented here have been previously described in Chen and Cheng, J. Biol. Chem., vol. 264, 11934-7 (1989).

CEM = assay: Toxicity, dye based cell growth assay, CEM; settings: read-out: IC50 (inhibited 50% of the cell growth), CEM, T cell line, 5 days
Description: as §1

HIV IIIB = assay: Anti-HIV activity in MT-2 cells infected with HIV IIIB, MTT dye cell viability; type: cell-based; settings: read-out: EC50 (concentration necessary to save 50% of the cells)
Description: To assess the ability of the compounds according to the present invention to inhibit viral infection relative to other compounds experiments were performed in the MT-2 cell line, as previously described by Larder, et al., Antimicrobial Agents & Chemotherapy, vol. 34, 436 (1990). […] Cells were infected at an initial multiplicity of infection (MOI) of 0.1 and grown for 5 days. Cell viability was assessed by the use of dye metabolized by viable cells.

[6] = Table 4, primer/template DNA/DNA
[7] = Table 4, primer/template DNA/RNA

For Nc1nc2c(ncn2C2C=CC(COP(=O)(O)OP(=O)(O)OP(=O)(O)O)C2)c(=O)[nH]1 (single isomer, unassigned; (-)) [CBVTP, (−) carbovir-TP], which Efficiency [1, 6] is on record?
The Efficiency was 0.05 ± 0.01 s^−1μM^−1.

And the Kd [1, 6]?
Its Kd is 21 ± 3 µM.

And the “Selectivity = efficiency dGTP/efficiency analog” value [1, 6]?
Its value is 30.

And the kpol [1, 6]?
Its kpol is 1.0 ± 0.06 s⁻¹.

And the Efficiency [1, 7]?
Its Efficiency is 0.42 ± 0.06 s^−1μM^−1.

What about the Kd [1, 7] of the same compound?
Its Kd is 3.7 ± 0.5 µM.

What about the “Selectivity = efficiency dGTP/efficiency analog” value [1, 7] of the same compound?
The value was 10.

And the kpol [1, 7]?
The kpol was 1.5 ± 0.05 s⁻¹.

What about the “Selectivity = (kpol/Kd)dGTP/(kpol/Kd)analog” value ([2]; Table 3, substrate DNA/DNA) of the same compound?
Its value is 30.

And the kpol ([2]; Table 3, substrate DNA/DNA)?
Its kpol is 1.0 ± 0.06 s⁻¹.

What about the kpol/Kd ([2]; Table 3, substrate DNA/DNA) of the same compound?
The kpol/Kd was 0.05 ± 0.01.

And the “Selectivity = (kpol/Kd)dGTP/(kpol/Kd)analog” value ([2]; Table 3, substrate DNA/RNA)?
The value was 10.

And the kpol ([2]; Table 3, substrate DNA/RNA)?
The kpol was 1.5 ± 0.05 s⁻¹.

And the kpol/Kd ([2]; Table 3, substrate DNA/RNA)?
Its kpol/Kd is 0.42 ± 0.06.

Which IC50 (HEP-G2; Homo sapiens, HepG2, 120 h) does the source give for Nc1nc(NC2CC2)c2ncn([C@H]3C=C[C@@H](CO)C3)c2n1 [Abacavir] here?
The IC50 was 180 ± 12 µM.

And the IC50 (MT-2; Homo sapiens, MT2, 120 h)?
The IC50 was 60 ± 13 µM.

What about the IC50 (KB; Homo sapiens, 120 h) of the same compound?
The IC50 was 200 ± 21 µM.

What about the “anti-HIV interaction of two analogs of the same base” value (HIV [3]) of the same compound?
The value was “not synergistic”.

What about the IC50 (HeLa; Homo sapiens, 120 h) of the same compound?
The IC50 was 500 ± 33 µM.

And the “anti-HIV interaction in combination with 3TC” value (HIV [4])?
Its value is “merely additive”.

And the “% Control (mtDNA/Alu)” value ([5]; 1 μM)?
Its value is 110%.

And the “Ration of mtDNA/Alu” value ([5]; 1 μM)?
Its value is 1.18 ± 0.03.

And the “% Control (mtDNA/Alu)” value ([5]; 10 μM)?
Its value is 119%.

And the “Ration of mtDNA/Alu” value ([5]; 10 μM)?
Its value is 1.27 ± 0.06.

What about the “% Control (mtDNA/Alu)” value ([5]; 200 μM) of the same compound?
Its value is 127%.

What about the “Ration of mtDNA/Alu” value ([5]; 200 μM) of the same compound?
The value was 1.36 ± 0.06.

And the IC50 (CEM; Homo sapiens, CCRF-CEM, 120 h)?
The IC50 was 200 ± 50 µM.

What about the EC50 (HIV IIIB; Human immunodeficiency virus 1, IIIB, MT2, 120 h) of the same compound?
Its EC50 is 2 ± 0.4 µM.

For Nc1nc(N)c2ncn([C@H]3CO[C@@H](CO)O3)c2n1 [DAPD], which IC50 (HEP-G2) is on record?
Its IC50 is 500 ± 33 µM.

And the IC50 (MT-2)?
Its IC50 is greater than 100 µM.

What about the IC50 (KB) of the same compound?
Its IC50 is greater than 500 µM.

And the IC50 (HeLa)?
The IC50 was 500 ± 33 µM.

What about the IC50 (CEM) of the same compound?
The IC50 was greater than 500 µM.

And the EC50 (HIV IIIB; MT-2 cells, HIV IIIB, MOI 0.1, 5 days, MTT, NA = No Activity at concentrations up to 100 uM, EC50 not achievable due to toxicity)?
The EC50 was 15 ± 4 µM.

Which results are given for Nc1nc2c(ncn2[C@H]2CO[C@@H](COP(=O)(O)OP(=O)(O)OP(=O)(O)O)O2)c(=O)[nH]1 [DXGTP]?
Kd ([2]; Table 3, substrate DNA/DNA): 2.5 ± 0.2 µM; Selectivity = (kpol/Kd)dGTP/(kpol/Kd)analog ([2]; Table 3, substrate DNA/DNA): 3; kpol ([2]; Table 3, substrate DNA/DNA): 1.46 ± 0.03 s⁻¹; kpol/Kd ([2]; Table 3, substrate DNA/DNA): 0.58 ± 0.05; Kd ([2]; Table 3, substrate DNA/RNA): 8.8 ± 1.1 µM; Selectivity = (kpol/Kd)dGTP/(kpol/Kd)analog ([2]; Table 3, substrate DNA/RNA): 20; kpol ([2]; Table 3, substrate DNA/RNA): 1.5 ± 0.1 s⁻¹; kpol/Kd ([2]; Table 3, substrate DNA/RNA): 0.17 ± 0.02
